Experimental data from US11339171B2, “MDM2 inhibitors” (Gan & Lee Pharmaceuticals, priority 2017, dated 2022).
Values joined by “and” are separate entries in the source; they are usually repeats but may differ in a detail not shown here. Identical values can stand only once. Like-named read-outs stand apart in the source and are kept apart here.

Assays:
MDM2 = target: T1, MDM2 (Homo sapiens, UniProt Q00987); test: Inhibition test of MDM2-P53 (GST-MDM2, Biotin-P53, Anti-GST-Tb, SA-XL665); format: binding
T1 construct: made in house
Summary of the method: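 HTRF-type assay using 4 nM GST-MDM2 (final), Biotin-P53, SA-XL665 and anti-GST-Tb in PBS with 0.1% BSA, 5 mM DTT and 1 mM AEBSF. Compounds in 5-fold serial dilutions over twelve points; incubation 90 min at 25° C with shaking before plate-reader read-out.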

[1] = Pharmacokinetics in ICR mice after intravenous and intragastric administration; format: in vivo; settings: for MRT inf: read-out: MRT(0-∞); for Vd: read-out: Vz; for MRT last: read-out: MRT(0-t)
Summary of the method: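 Plasma concentration-time data, quantified by LC-MS/MS with a 1 ng/mL lower limit, gave AUC, t1/2, MRT, Cmax, Tmax, bioavailability, Vz and clearance. Overnight-fasted male ICR mice (three per route) received 2 mg/kg intravenously or 5 mg/kg intragastrically.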

[2] = tested on: human osteosarcoma cell line SJSA-1; test: Inhibition of proliferation of human osteosarcoma cell line SJSA-1 (DAPI staining, In Cell Analyzer); settings: Homo sapiens, SJSA-1, 72 h, read-out: IC50 (nM), inhibitory activity on proliferation of human osteosarcoma cell line SJSA-1, SJSA-1, incubated 72 h
[3] = ICR mice, IV 2 mg/kg, individual animals 301-303, 2 mg/kg
[4] = ICR mice, PO 5 mg/kg, individual animals 401-403, 5 mg/kg
[5] = male, ICR, mouse, plasma, iv, 2 mg/kg, ICR mice, IV 2 mg/kg, individual animals 301-303
[6] = male, ICR, mouse, plasma, iv, 2 mg/kg, ICR mice, IV 2 mg/kg, mean of 3 animals
[7] = male, ICR, mouse, plasma, iv, 2 mg/kg, ICR mice, IV 2 mg/kg, mean of 3 animals, read-out: AUC(0-t)
[8] = male, ICR, mouse, plasma, iv, 2 mg/kg, ICR mice, IV 2 mg/kg, mean of 3 animals, read-out: Cmax
[9] = male, ICR, mouse, plasma, iv, 2 mg/kg, ICR mice, IV 2 mg/kg, mean of 3 animals, read-out: Tmax
[10] = male, ICR, mouse, plasma, iv, 2 mg/kg, ICR mice, IV 2 mg/kg, mean of 3 animals, read-out: t1/2 (converted)
[11] = male, ICR, mouse, plasma, po, 5 mg/kg, ICR mice, PO 5 mg/kg, individual animals 401-403
[12] = male, ICR, mouse, plasma, po, 5 mg/kg, ICR mice, PO 5 mg/kg, mean of 3 animals
[13] = male, ICR, mouse, plasma, po, 5 mg/kg, ICR mice, PO 5 mg/kg, mean of 3 animals, read-out: AUC(0-t)
[14] = male, ICR, mouse, plasma, po, 5 mg/kg, ICR mice, PO 5 mg/kg, mean of 3 animals, read-out: Cmax
[15] = male, ICR, mouse, plasma, po, 5 mg/kg, ICR mice, PO 5 mg/kg, mean of 3 animals, read-out: Tmax
[16] = male, ICR, mouse, plasma, po, 5 mg/kg, ICR mice, PO 5 mg/kg, mean of 3 animals, read-out: t1/2 (converted)
[17] = male, ICR, mouse, plasma, po, 5 mg/kg, oral intragastric administration 5 mg/kg, read-out: AUC0-t
[18] = male, ICR, mouse, plasma, po, 5 mg/kg, oral intragastric administration 5 mg/kg, read-out: half-life (converted)
[19] = ICR mice, IV 2 mg/kg, individual animal, 2 mg/kg
[20] = ICR mice, PO 5 mg/kg, individual animal, 5 mg/kg
[21] = male, ICR, mouse, plasma, po, 5 mg/kg, ICR mice, PO 5 mg/kg, individual animal

T1 sequence (Q00987 whole entry): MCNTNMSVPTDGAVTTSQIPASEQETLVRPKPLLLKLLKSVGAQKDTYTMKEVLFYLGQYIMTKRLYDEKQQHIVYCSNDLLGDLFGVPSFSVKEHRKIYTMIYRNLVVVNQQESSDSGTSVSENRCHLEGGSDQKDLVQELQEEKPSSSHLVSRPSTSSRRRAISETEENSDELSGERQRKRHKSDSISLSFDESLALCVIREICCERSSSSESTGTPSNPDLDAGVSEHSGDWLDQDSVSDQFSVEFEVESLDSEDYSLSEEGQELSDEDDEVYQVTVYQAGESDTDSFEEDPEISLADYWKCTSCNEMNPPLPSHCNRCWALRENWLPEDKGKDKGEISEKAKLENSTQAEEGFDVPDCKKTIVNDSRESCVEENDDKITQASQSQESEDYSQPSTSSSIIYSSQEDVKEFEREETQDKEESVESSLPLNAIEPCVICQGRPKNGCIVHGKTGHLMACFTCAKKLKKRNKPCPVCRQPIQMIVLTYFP

## COc1cc(C(F)(F)F)ncc1-c1nc2c(n1C(C)C)[C@@]1(C(=O)Nc3cc(Cl)ccc31)N(c1cc(Cl)ccc1C)C2=O [Example S-138, (S)-6-chloro-5′-(5-chloro-2-methylphenyl)-3′-isopropyl-2′-(4-methoxy-6-(trifluoromethyl)pyridin-3-yl)-3′H-spiro[dihydroindole-3,4′-pyrrolo[3,4-d]imidazole]-2,6′(5′H)-dione]
MDM2
  IC50: 1.04 nM
[1]; [3]
  AUC(0-t): 3427.99 ng·h/mL and 6387.52 ng·h/mL
  AUC(0-∞): 5237.36 ng·h/mL and 6445.45 ng·h/mL
  CL: 6.36 mL/min/kg and 5.17 mL/min/kg
  Cmax: 2002.99 ng/mL and 1828.27 ng/mL
  MRT(0-t): 4.04 h and 2.03 h and 4.19 h
  MRT(0-∞): 5.54 h and 4.42 h
  Vz: 2.37 L/kg and 1.70 L/kg
  t1/2: 4.29 h and 3.81 h
[1]; ICR mice, PO 5 mg/kg vs IV 2 mg/kg, mean
  F*: 58.12%
[1]; [4]
  AUC(0-t): 7494.57 ng·h/mL and 8147.05 ng·h/mL
  AUC(0-∞): 8818.35 ng·h/mL and 9514.89 ng·h/mL
  Cmax: 1475.55 ng/mL and 1466.48 ng/mL
  MRT(0-t): 3.19 h and 3.27 h
  MRT(0-∞): 4.51 h and 4.52 h
  Tmax: 4.00 h and 2.00 h and 1.00 h
  t1/2: 2.74 h
[1]; [5]
  AUC(0-inf): 6130 ng·h/mL
  clearance: 5.44 mL/min/kg
  MRT inf: 4.32 h
  Vd: 1.9 L/kg
[1]; male, ICR, mouse, plasma, iv, 2 mg/kg, ICR mice, IV 2 mg/kg, individual animals 301-303, read-out: AUC(0-t)
  AUC(0-t): 6060 ng·h/mL
[1]; male, ICR, mouse, plasma, iv, 2 mg/kg, ICR mice, IV 2 mg/kg, individual animals 301-303, read-out: Cmax
  Cmax: 2170 ng/mL
[1]; male, ICR, mouse, plasma, iv, 2 mg/kg, ICR mice, IV 2 mg/kg, individual animals 301-303, read-out: Tmax
  Tmax: 0.08 h
[1]; male, ICR, mouse, plasma, iv, 2 mg/kg, ICR mice, IV 2 mg/kg, individual animals 301-303, read-out: t1/2 (converted)
  half-life: 4.03 h
[1]; [6]
  AUC(0-inf): 5940 ng·h/mL
  clearance: 5.66 mL/min/kg
  MRT last: 3.42 h
  MRT inf: 4.76 h
  Vd: 1.99 L/kg
[1]; [7]
  AUC(0-t): 5290 ng·h/mL
[1]; [8]
  Cmax: 2000 ng/mL
[1]; [9]
  Tmax: 0.083 h
[1]; [10]
  half-life: 4.04 h
[1]; [11]
  AUC(0-inf): 9150 ng·h/mL
  MRT last: 3.56 h
  MRT inf: 5.12 h
[1]; male, ICR, mouse, plasma, po, 5 mg/kg, ICR mice, PO 5 mg/kg, individual animals 401-403, read-out: AUC(0-t)
  AUC(0-t): 7430 ng·h/mL
[1]; male, ICR, mouse, plasma, po, 5 mg/kg, ICR mice, PO 5 mg/kg, individual animals 401-403, read-out: Cmax
  Cmax: 1240 ng/mL
[1]; male, ICR, mouse, plasma, po, 5 mg/kg, ICR mice, PO 5 mg/kg, individual animals 401-403, read-out: t1/2 (converted)
  half-life: 2.69 h
[1]; [12]
  AUC(0-inf): 9160 ng·h/mL
  MRT last: 3.34 h
  MRT inf: 4.72 h
[1]; [13]
  AUC(0-t): 7690 ng·h/mL
[1]; [14]
  Cmax: 1390 ng/mL
[1]; [15]
  Tmax: 2.33 h
[1]; [16]
  half-life: 2.72 h
[1]; [17]
  AUC(0-t): 7690 ng·h/mL
[1]; [18]
  half-life: 2.72 h
[2]
  IC50: 75.7 nM

## CCOc1cc(OC)c(-c2nc3c(n2C(C)C)[C@@]2(C(=O)Nc4cc(Cl)ccc42)N(c2cc(Cl)cnc2C)C3=O)cn1 [Example S-96, (S)-6-chloro-5′-(5-chloro-2-methylpyridin-3-yl)-2′-(6-ethoxy-4-methoxypyridin-3-yl)-3′-isopropyl-3′H-spiro[dihydroindole-3,4′-pyrrolo[3,4-d]imidazole]-2,6′(5′H)-dione]
MDM2
  IC50: 1.04 nM
[1]; [19]
  AUC(0-t): 3109.78 ng·h/mL and 3206.41 ng·h/mL and 6719.85 ng·h/mL
  AUC(0-∞): 3157.25 ng·h/mL and 3250.65 ng·h/mL and 6815.93 ng·h/mL
  CL: 10.56 mL/min/kg and 10.25 mL/min/kg and 4.89 mL/min/kg
  Cmax: 3353.43 ng/mL and 3438.41 ng/mL
  MRT(0-t): 0.90 h and 2.62 h
  MRT(0-∞): 1.00 h and 0.99 h and 2.99 h
  Vz: 0.95 L/kg and 1.42 L/kg
  t1/2: 0.93 h and 1.07 h and 3.36 h
[1]; [20]
  AUC(0-t): 6327.28 ng·h/mL and 6993.90 ng·h/mL and 13010.63 ng·h/mL
  AUC(0-∞): 6705.00 ng·h/mL and 7471.54 ng·h/mL and 15115.19 ng·h/mL
  Cmax: 3921.65 ng/mL and 2400.19 ng/mL and 5236.64 ng/mL
  MRT(0-t): 2.42 h and 2.30 h
  MRT(0-∞): 2.97 h and 3.61 h
  Tmax: 0.50 h
  t1/2: 2.06 h and 2.58 h
[1]; male, ICR, mouse, plasma, iv, 2 mg/kg, ICR mice, IV 2 mg/kg, individual animal, read-out: Cmax
  Cmax: 2980 ng/mL
[1]; male, ICR, mouse, plasma, iv, 2 mg/kg, ICR mice, IV 2 mg/kg, individual animal, read-out: Tmax
  Tmax: 0.08 h
[1]; male, ICR, mouse, plasma, iv, 2 mg/kg, ICR mice, IV 2 mg/kg, individual animal
  Vd: 0.85 L/kg
[1]; [6]
  AUC(0-inf): 4410 ng·h/mL
  clearance: 8.57 mL/min/kg
  MRT last: 1.47 h
  MRT inf: 1.66 h
  Vd: 1.07 L/kg
[1]; [7]
  AUC(0-t): 4350 ng·h/mL
[1]; [8]
  Cmax: 3260 ng/mL
[1]; [9]
  Tmax: 0.083 h
[1]; [10]
  half-life: 1.79 h
[1]; [21]
  MRT last: 1.66 h
  MRT inf: 2.15 h
[1]; male, ICR, mouse, plasma, po, 5 mg/kg, ICR mice, PO 5 mg/kg, individual animal, read-out: Tmax
  Tmax: 0.25 h
[1]; male, ICR, mouse, plasma, po, 5 mg/kg, ICR mice, PO 5 mg/kg, individual animal, read-out: t1/2 (converted)
  half-life: 1.69 h
[1]; [12]
  AUC(0-inf): 9760 ng·h/mL
  MRT last: 2.13 h
  MRT inf: 2.91 h
[1]; [13]
  AUC(0-t): 8780 ng·h/mL
[1]; [14]
  Cmax: 3850 ng/mL
[1]; [15]
  Tmax: 0.42 h
[1]; [16]
  half-life: 2.11 h
[1]; [17]
  AUC(0-t): 8780 ng·h/mL
[1]; [18]
  half-life: 2.11 h
[1]; male, mouse, plasma, ICR mice, PO 5 mg/kg vs IV 2 mg/kg, from mean values, read-out: F* (bioavailability)
  bioavailability: 80.8%
[2]
  IC50: 25.3 nM
